BindingDB's records for doi:10.1021/jm8010993

How the values were obtained:
Test in all cases: PDE4 Enzyme Assay
Settings in all cases: pH 8; 34 °C
[1] = target: cAMP-specific 3',5'-cyclic phosphodiesterase 4D (Homo sapiens, UniProt Q08499)
Method: (§1) The samples were assayed in a solution composed of PDE4, [3H]cAMP/cAMP, and test compounds. To convert AMP to adenosine, snake venom was added to each sample after reactions were stopped. The reaction products were separated by anion-exchange chromatography performed on AGl-X8 resin, and the amount of unbound [3H] adenosine was collected and quantified by scintillation counting.

[2] = target: cAMP-specific 3',5'-cyclic phosphodiesterase 4B (Homo sapiens, UniProt Q07343)
Method: as §1

[3] = target: cAMP-specific 3',5'-cyclic phosphodiesterase 4A (Homo sapiens, UniProt P27815)
Method: as §1

cAMP-specific 3',5'-cyclic phosphodiesterase 4D, sequence (Q08499 whole entry): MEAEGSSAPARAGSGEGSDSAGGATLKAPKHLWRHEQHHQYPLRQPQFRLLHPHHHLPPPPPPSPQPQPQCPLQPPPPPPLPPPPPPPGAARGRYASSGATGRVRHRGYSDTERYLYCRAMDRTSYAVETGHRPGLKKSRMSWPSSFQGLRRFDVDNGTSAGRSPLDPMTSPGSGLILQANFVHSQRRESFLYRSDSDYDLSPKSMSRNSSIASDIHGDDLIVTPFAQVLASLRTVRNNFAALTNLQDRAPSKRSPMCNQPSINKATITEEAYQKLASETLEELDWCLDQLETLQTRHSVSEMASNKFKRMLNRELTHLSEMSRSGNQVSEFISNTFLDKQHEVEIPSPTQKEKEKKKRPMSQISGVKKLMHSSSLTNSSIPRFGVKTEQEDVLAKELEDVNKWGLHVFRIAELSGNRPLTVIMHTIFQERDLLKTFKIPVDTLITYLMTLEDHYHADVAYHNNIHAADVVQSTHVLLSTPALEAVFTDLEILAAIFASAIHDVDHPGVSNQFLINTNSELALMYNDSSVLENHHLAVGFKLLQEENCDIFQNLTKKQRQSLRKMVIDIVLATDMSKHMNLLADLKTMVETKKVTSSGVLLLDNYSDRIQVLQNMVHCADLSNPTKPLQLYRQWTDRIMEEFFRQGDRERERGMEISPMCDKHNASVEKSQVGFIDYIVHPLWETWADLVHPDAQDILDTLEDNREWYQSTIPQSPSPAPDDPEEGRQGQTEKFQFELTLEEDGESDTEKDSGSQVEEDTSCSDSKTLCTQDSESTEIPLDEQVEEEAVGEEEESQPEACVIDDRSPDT
cAMP-specific 3',5'-cyclic phosphodiesterase 4A, sequence (P27815 whole entry): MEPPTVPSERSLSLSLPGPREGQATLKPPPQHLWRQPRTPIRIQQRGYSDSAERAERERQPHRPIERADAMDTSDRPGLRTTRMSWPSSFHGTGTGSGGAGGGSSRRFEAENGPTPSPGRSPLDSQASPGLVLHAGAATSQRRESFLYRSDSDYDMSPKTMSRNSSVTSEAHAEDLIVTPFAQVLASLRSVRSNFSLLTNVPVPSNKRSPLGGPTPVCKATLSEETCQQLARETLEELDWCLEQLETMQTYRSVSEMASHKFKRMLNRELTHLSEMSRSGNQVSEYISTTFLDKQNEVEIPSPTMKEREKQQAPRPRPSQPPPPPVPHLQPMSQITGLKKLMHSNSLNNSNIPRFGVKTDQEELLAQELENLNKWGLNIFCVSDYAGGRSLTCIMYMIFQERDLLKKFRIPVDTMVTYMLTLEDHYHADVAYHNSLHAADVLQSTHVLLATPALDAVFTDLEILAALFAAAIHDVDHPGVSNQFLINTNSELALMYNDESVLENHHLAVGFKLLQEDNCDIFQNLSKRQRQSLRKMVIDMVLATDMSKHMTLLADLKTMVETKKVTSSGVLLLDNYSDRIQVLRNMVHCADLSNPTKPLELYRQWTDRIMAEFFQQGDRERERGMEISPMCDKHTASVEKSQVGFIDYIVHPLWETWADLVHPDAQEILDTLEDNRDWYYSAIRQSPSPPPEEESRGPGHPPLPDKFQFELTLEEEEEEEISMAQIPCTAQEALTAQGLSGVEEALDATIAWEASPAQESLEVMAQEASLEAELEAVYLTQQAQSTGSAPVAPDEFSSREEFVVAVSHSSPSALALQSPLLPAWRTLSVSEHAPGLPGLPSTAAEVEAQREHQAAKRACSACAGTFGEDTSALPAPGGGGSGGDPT
cAMP-specific 3',5'-cyclic phosphodiesterase 4B, sequence (Q07343 whole entry): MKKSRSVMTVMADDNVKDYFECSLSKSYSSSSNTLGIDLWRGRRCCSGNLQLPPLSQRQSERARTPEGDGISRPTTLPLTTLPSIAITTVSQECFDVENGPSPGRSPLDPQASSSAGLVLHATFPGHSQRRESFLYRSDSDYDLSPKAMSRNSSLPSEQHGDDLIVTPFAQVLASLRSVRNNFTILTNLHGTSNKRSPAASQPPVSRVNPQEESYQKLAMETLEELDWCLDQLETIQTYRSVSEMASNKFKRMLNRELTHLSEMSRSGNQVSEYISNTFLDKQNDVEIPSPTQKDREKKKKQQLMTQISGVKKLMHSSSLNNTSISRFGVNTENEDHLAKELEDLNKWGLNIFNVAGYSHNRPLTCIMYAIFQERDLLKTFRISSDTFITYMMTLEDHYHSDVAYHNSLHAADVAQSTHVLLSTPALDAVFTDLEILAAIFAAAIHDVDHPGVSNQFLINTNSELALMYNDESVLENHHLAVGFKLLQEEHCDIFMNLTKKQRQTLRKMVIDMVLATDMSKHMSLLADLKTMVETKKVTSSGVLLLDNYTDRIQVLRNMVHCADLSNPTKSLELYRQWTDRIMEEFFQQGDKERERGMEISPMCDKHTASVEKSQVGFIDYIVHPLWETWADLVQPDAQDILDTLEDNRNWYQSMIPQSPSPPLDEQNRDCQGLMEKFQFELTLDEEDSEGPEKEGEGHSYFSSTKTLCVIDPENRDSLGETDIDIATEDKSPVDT

COc1ccc(F)c(CCC2CCC(CCNCCCCCN3N=C(c4ccc(OC)c(OC)c4)C4CC=CCC4C3=O)O2)c1 (stereo not drawn) [phthalazinone, 21]
Ki [1]: 2 nM | Ki [2]: 199 nM | Ki [3]: > 1000 nM
